# Values quoted from earlier work in patent US11197860B2 (Eli Lilly and Company, priority 2018, dated 2021).
# What was measured:
# [1] = PBC patients; Nevens et al. 2016
# [2] = phase 3 trials; EMA Assessment Report for Olumiant
# [3] = patients in clinical trials; ALT and AST increases to >=5x and >=10x ULN observed
SMILES,pruritus (adverse effect) [1],patient's ALP after treatment [2],incidence of liver enzyme elevation compared to placebo [3]
"CC[C@H]1[C@@H](O)[C@@H]2[C@H](CC[C@]3(C)[C@@H]([C@H](C)CCC(=O)O)CC[C@@H]23)[C@@]2(C)CC[C@@H](O)C[C@@H]12 [obeticholic acid, Obeticholic acid]",associated with increased pruritus,–,–
"CCS(=O)(=O)N1CC(CC#N)(n2cc(-c3ncnc4[nH]ccc34)cn2)C1 [baricitinib, {1-(ethylsulfonyl)-3-[4-(7H-pyrrolo[2,3-d]pyrimidin-4-yl)-1H-pyrazol-1-yl]azetidin-3-yl}acetonitrile]",–,ALP decreased after treatment,increased incidence of liver enzyme elevation compared to placebo
